One may read the logP as the decadic logarithm of the partition coefficient of the neutral form, usually between octanol and water. Higher therefore signals a more lipophilic compound. In the case of `CCOc1cccc(NC(=O)Cc2ccccc2)c1`, the logP came out at 3.23.

`CC(=O)c1ccc(NC(=O)Cc2ccccc2)cc1`: the logP worked out at 2.75.

For `O=C(Cc1ccccc1)Nc1cccc(I)c1`, the log partition coefficient (logP) came out at 3.91.

In turn, `CCNc1cccc(NC(=O)Cc2ccccc2)c1` yielded a logP of 2.59.

`COc1ccccc1NC(=O)Cc1ccccc1` returned a logP of 2.68.

As to `CCc1cccc(N(C(C)=O)c2ccccc2)c1`, the logP is 3.47.

For `N#Cc1cccc(NC(=O)Cc2ccccc2)c1`, the log partition coefficient (logP) turned out to be 2.75.

As for `O=C(Cc1ccccc1)Nc1ccc([N+](=O)[O-])cc1`, the logP came out at 3.18.

Turning to `Nc1ccccc1NC(=O)Cc1ccccc1`, the logP is 1.45.

In the case of `O=C(Cc1ccccc1)Nc1cccc(Br)c1`, the log partition coefficient (logP) amounted to 3.77.

`O=C(Cc1ccccc1)Nc1ccccc1F`: the lipophilicity (logP) came out at 2.62.

`O=C(Cc1ccccc1)Nc1ccccc1` displayed a log partition coefficient (logP) of 2.7.

For the compound `O=C(Cc1ccccc1)Nc1cccc([N+](=O)[O-])c1`, the logP worked out at 2.93.

The compound `CNc1cccc(NC(=O)Cc2ccccc2)c1` displayed a lipophilicity (logP) of 2.31.

With `CC(=O)Oc1cccc(NC(=O)Cc2ccccc2)c1`, the logP is 2.37.

`CC(=O)c1cccc(NC(=O)Cc2ccccc2)c1` displayed a logP of 2.62.

As for `O=C(Cc1ccccc1)Nc1ccccc1[N+](=O)[O-]`, the log partition coefficient (logP) is 2.73.

In the case of `COc1ccc(NC(=O)Cc2ccccc2)cc1`, the logP was 2.49.

In turn, `Nc1cccc(NC(=O)Cc2ccccc2)c1` showed a log partition coefficient (logP) of 1.59.

Consider `O=C(Cc1ccccc1)Nc1ccc(O)cc1`, for which the logP worked out at 1.82.

`O=C(Cc1ccccc1)Nc1ccccc1O` registered a logP of 2.4.

Take `Cc1cccc(NC(=O)Cc2ccccc2)c1`: the logP was 3.14.

`COc1cccc(NC(=O)Cc2ccccc2)c1` displayed a log partition coefficient (logP) of 2.86.

`O=C(Cc1ccccc1)Nc1ccc(F)cc1` had a logP of 2.86.

The compound `O=C(Cc1ccccc1)Nc1ccc(Cl)cc1` gave a lipophilicity (logP) of 3.54.

The compound `O=C(Cc1ccccc1)Nc1cccc(O)c1` gave a logP of 2.22.

`CS(=O)(=O)Oc1cccc(NC(=O)Cc2ccccc2)c1` showed a logP of 2.32.

Compound `CC(=O)N(c1ccccc1)c1ccc(C)cc1` showed a logP of 3.05.

Take `O=C(Cc1ccccc1)Nc1ccc(Br)cc1`: the logP is 3.7.

With `O=C(Cc1ccccc1)Nc1cccc(F)c1`, the lipophilicity (logP) is 3.1.

These data come from the OPERA property sets (Mansouri et al. 2018).
